In BigSolDB 2.1:

CC(=O)Nc1ccccc1[N+](=O)[O-]
solubility (mole fraction)
Conditions | 278.15 K | 283.15 K | 288.15 K | 293.15 K | 298.15 K | 303.15 K | 308.15 K | 313.15 K | 318.15 K | 323.15 K
in 1,4-dioxane | – | – | 0.13 | 0.147 | 0.165 | 0.186 | 0.211 | 0.244 | 0.284 | 0.343
in DMF | 0.167 | 0.178 | 0.192 | 0.213 | 0.238 | 0.266 | 0.295 | 0.327 | 0.373 | 0.426
in NMP | 0.195 | 0.215 | 0.239 | 0.268 | 0.299 | 0.33 | 0.367 | 0.404 | 0.445 | 0.491
in acetonitrile | 0.0156 | 0.0176 | 0.021 | 0.0248 | 0.0302 | 0.0387 | 0.0511 | 0.0675 | 0.0932 | 0.124
in cyclohexane | – | 0.00106 | 0.00133 | 0.00167 | 0.00216 | 0.00275 | 0.00357 | 0.00474 | 0.00634 | 0.0084
in ethanol | 0.0143 | 0.0163 | 0.0188 | 0.0226 | 0.0276 | 0.0323 | 0.0382 | 0.0447 | 0.0516 | 0.0615
in ethyl acetate | 0.0478 | 0.0545 | 0.0662 | 0.079 | 0.094 | 0.112 | 0.135 | 0.163 | 0.21 | 0.263
in ethylene glycol | 0.00464 | 0.00517 | 0.00599 | 0.00714 | 0.00855 | 0.0103 | 0.0126 | 0.0155 | 0.0187 | 0.0224
in isobutanol | 0.00896 | 0.00984 | 0.0115 | 0.0134 | 0.0162 | 0.0202 | 0.0246 | 0.0302 | 0.0374 | 0.0483
in isopropanol | 0.00743 | 0.00851 | 0.00991 | 0.0121 | 0.0151 | 0.0184 | 0.0227 | 0.0279 | 0.036 | 0.0468
in methanol | 0.0181 | 0.021 | 0.0248 | 0.0289 | 0.0331 | 0.0394 | 0.0463 | 0.0558 | 0.0703 | 0.0926
in n-butanol | 0.00975 | 0.011 | 0.0127 | 0.016 | 0.0196 | 0.0232 | 0.028 | 0.0341 | 0.0422 | 0.0529
in n-heptanol | 0.00627 | 0.00721 | 0.00829 | 0.0105 | 0.0129 | 0.0163 | 0.0209 | 0.0261 | 0.0337 | 0.042
in n-propanol | 0.0129 | 0.0144 | 0.0167 | 0.0204 | 0.0245 | 0.0285 | 0.0331 | 0.0393 | 0.0468 | 0.0578
in water | 9.9e-05 | 0.000128 | 0.00016 | 0.000201 | 0.000249 | 0.00032 | 0.000412 | 0.000521 | 0.000662 | 0.000824
